Earlier results on 1 compound are cited in US11096902B1, “Transdermal film formulations and methods of use” (King Abdulaziz University, priority 2021, dated 2021).

For the data set the following is noted: oral, with food.

Take `CC(C)c1c(C(=O)Nc2ccccc2)c(-c2ccccc2)c(-c2ccc(F)cc2)n1CC[C@@H](O)C[C@@H](O)CC(=O)[O-].CC(C)c1c(C(=O)Nc2ccccc2)c(-c2ccccc2)c(-c2ccc(F)cc2)n1CC[C@@H](O)C[C@@H](O)CC(=O)[O-].[Ca+2]` [ATC, Atorvastatin calcium]: the “reduction of systemic availability by concomitant intake of food” value is on record as 25%.
